The supplement of paper PMC10307832

Tests used:
Assay in all cases: relative viability (nuclei count vs DMSO), 5 days (fraction); higher = more cells survive
[1] = compound: C1CNCCC1C2=CC(=NN2)C3=CC=NC=C3 + CS(=O)(=O)N1CCN(Cc2cc3nc(-c4cccc5[nH]ncc45)nc(N4CCOCC4)c3s2)CC1 [Pictilisib] (partner 1 µM)
Method in brief: (§1)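 Relative viability equals treated-well nuclei counts divided by vehicle-well nuclei counts. Counts came from 4× images of lung cancer cell lines grown in 1536-well plates for 5 days after pin-tool dosing on the day after seeding. Dosing used one drug alone or a fixed anchor-drug dose plus five library-drug doses (not always all listed) in √10 steps, and values are medians of duplicate plates.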

[2] = compound: C[C@@H](N)c1ccc(C(=O)Nc2ccnc3[nH]ccc23)cc1 + CS(=O)(=O)CCNCc1ccc(-c2ccc3ncnc(Nc4ccc(OCc5cccc(F)c5)c(Cl)c4)c3c2)o1 [Lapatinib] (partner 2 µM)
Method in brief: as §1

[3] = compound: O[C@H]1CC[C@H](Nc2ncc3nc(Nc4c(F)cc(F)cc4F)n([C@H]4CCOC4)c3n2)CC1 [Tanzisertib] + CC1(C)CCC(c2ccc(Cl)cc2)=C(CN2CCN(c3ccc(C(=O)NS(=O)(=O)c4ccc(N[C@H](CCN5CCOCC5)CSc5ccccc5)c(S(=O)(=O)C(F)(F)F)c4)cc3)CC2)C1 [Navitoclax] (partner 0.5 µM)
Method in brief: as §1

[4] = compound: O[C@H]1CC[C@H](Nc2ncc3nc(Nc4c(F)cc(F)cc4F)n([C@H]4CCOC4)c3n2)CC1 [Tanzisertib] + C[C@]1(O)C[C@@H](c2nc(-c3ccc4ccc(-c5ccccc5)nc4c3)c3c(N)nccn32)C1 [Linsitinib] (partner 1 µM)
Method in brief: as §1

Cell Line	relative viability ([1]; first compound 0.08 µM)	relative viability ([1]; first compound 0.8 µM)	relative viability ([1]; first compound 2.53 µM)	relative viability ([1]; first compound 8 µM)	relative viability ([2]; first compound 0.04 µM)	relative viability ([2]; first compound 0.1265 µM)	relative viability ([2]; first compound 0.4 µM)	relative viability ([2]; first compound 4 µM)	relative viability ([3]; first compound 0.08 µM)	relative viability ([3]; first compound 0.253 µM)	relative viability ([3]; first compound 0.8 µM)	relative viability ([3]; first compound 2.53 µM)	relative viability ([3]; first compound 8 µM)	relative viability ([4]; first compound 0.08 µM)	relative viability ([4]; first compound 0.253 µM)	relative viability ([4]; first compound 0.8 µM)	relative viability ([4]; first compound 2.53 µM)	relative viability ([4]; first compound 8 µM)	relative viability ([2]; first compound 1.265 µM)
HCC-366	0.162	0.127	0.11	0.182	1	1.15	1.11	1.04	1.16	1.02	1.08	1.13	1.01	0.757	0.59	0.691	0.576	0.419	
NCI-H2085	0.406		0.448	0.546	0.841	0.729	0.872	0.799	1.11	1.05	1.2	1.09	1.14	1.03	0.808	0.905	0.826	0.83	0.546
PC-14	0.716	0.763	0.842	0.661	0.292	0.344	0.295	0.329	1.03	1.05	0.934	1.02	0.736	1	0.987	0.885	0.942	0.572	0.271
HOP-62	0.654	0.816	0.791	0.717	0.929	0.784	1.02	0.982	0.978	0.994	0.819	1.11	1.26	0.924	1.14	1.13	1.04	0.918	0.512
NCI-H2087	0.855	1.03	1.1	1.09	0.85	1.22	0.831	0.825	1.04	0.961	0.957	1.04	0.95	1.12	1.07	0.98	1.24	0.957	0.148
NCI-H1793	0.294	0.357	0.422	0.358	0.828	0.564	0.907	0.888	0.432	0.424	0.445	0.39	0.382	1.04	0.686	0.972	0.884	0.816	
PC-3 [JPC-3]	0.719	0.721	0.738	0.766	0.538	0.545	0.505	0.536	0.898	0.815	0.866	0.81	0.853	1.05	0.957	0.963	0.963	0.899	0.529
H3255	0.469	0.477	0.511	0.442	0.306	0.304	0.302	0.306	0.618	0.587	0.428	0.434	0.12	0.966	0.841	0.983	0.907	0.636	0.334
EMC-BAC-2	0.449	0.613	0.544	0.517	0.86	0.896	0.898	0.897	1.23	1.16	1.18	1.12	1.07	0.825	0.806	0.825	0.743	0.771	0.986
CAL-12T	0.619	0.549	0.481	0.616	0.801	0.811	0.886	0.875	1.21	1.18	1.37	1.37	1.34	0.896	0.769	0.882	0.977	0.817	
SK-MES-1	0.397	0.344	0.404	0.319	0.518	0.459	0.428	0.444	1.31	1.25	1.26	1.22	1.21	1.08	1.06	1.06	1.12	0.832	0.423
EBC-1	0.447	0.425	0.364	0.409	0.265	0.239	0.219	0.171	0.433	0.419	0.451	0.404	0.318	1.29	0.876	0.846	0.899	0.783	0.179
NCI-H1355	0.501	0.52	0.517	0.423	0.973	0.972	1.03	0.924	0.954	0.923	0.961	0.985	0.944	0.785	0.826	0.923	0.858	0.777	
NCI-H838	0.439	0.491	0.471	0.461	0.683	0.922	0.708	0.427	1.18	1.15	1.26	1.18	1.12	1.02	0.997	1	1.01	0.919	0.445
LK-2	0.452	0.746	0.572	0.623	1.06	0.693	0.975	0.733	0.871	0.847	0.87	0.884	0.9	0.522	0.519	0.724	0.624	0.637	0.814
IA-LM	0.374	0.482	0.371	0.477	0.779	0.954	0.865	0.957	0.814	0.622	0.691	0.963	1.1	0.793	0.552	0.589	0.712	0.768	1.27
NCI-H1703	0.253	0.253	0.21	0.22	1.24	0.982	0.85	0.541	1.12	0.837	1.05	1.03	0.927	1.03	0.674	0.787	0.316	0.546	0.847
